Results as given in ChEMBL document CHEMBL3390836, “Mannich- and LedererManasse-based analogues of the natural product S-(+)-curcuphenol as cancer proliferation and migration inhibitors” (Medchemcomm, 2012).

Tests used:
M14 [1] = experiment: Cytotoxicity against human M14 cells assessed as cell growth at 10^-4 M after 48 hrs by SRB assay relative to control; type: functional; conditions: M14, 48 h, read-out: Activity
A549 = experiment: Cytotoxicity against human A549 cells assessed as cell growth at 10^-4 M after 48 hrs by SRB assay relative to control; type: functional; conditions: A549, 48 h, read-out: Activity
RPMI-8226 [2] = experiment: Cytotoxicity against human RPMI8226 cells assessed as cell growth at 10^-4 M after 48 hrs by SRB assay relative to control; type: functional; conditions: RPMI-8226, 48 h, read-out: Activity
RPMI-8226 [3] = experiment: Cytotoxicity against human RPMI8226 cells assessed as cell growth at 10^-6 M after 48 hrs by SRB assay relative to control; type: functional; conditions: RPMI-8226, 48 h, read-out: Activity
RPMI-8226 [4] = experiment: Cytotoxicity against human RPMI8226 cells assessed as cell growth at 10^-8 M after 48 hrs by SRB assay relative to control; type: functional; conditions: RPMI-8226, 48 h, read-out: Activity
CCRF-CEM [5] = experiment: Cytotoxicity against human CCRF-CEM cells assessed as cell growth at 10^-8 M after 48 hrs by SRB assay relative to control; type: functional; conditions: read-out: Activity
CCRF-CEM [6] = experiment: Cytotoxicity against human CCRF-CEM cells assessed as cell growth at 10^-6 M after 48 hrs by SRB assay relative to control; type: functional; conditions: read-out: Activity
[7] = Cytotoxicity against human UACC257 cells assessed as cell growth at 10^-4 M after 48 hrs by SRB assay relative to control; type: functional; conditions: UACC-257, 48 h, read-out: Activity
M14 [8] = experiment: Cytotoxicity against human M14 cells after 48 hrs by SRB assay; type: functional; conditions: M14, 48 h; for CC50: read-out: LC50 (the source's name)
RPMI-8226 [9] = experiment: Cytotoxicity against human RPMI8226 cells assessed as cell growth at 10^-7 M after 48 hrs by SRB assay relative to control; type: functional; conditions: RPMI-8226, 48 h, read-out: Activity
M14 [10] = experiment: Cytotoxicity against human M14 cells assessed as cell growth at 10^-7 M after 48 hrs by SRB assay relative to control; type: functional; conditions: M14, 48 h, read-out: Activity
M14 [11] = experiment: Cytotoxicity against human M14 cells assessed as cell growth at 10^-6 M after 48 hrs by SRB assay relative to control; type: functional; conditions: M14, 48 h, read-out: Activity
[12] = Cytotoxicity against human UACC257 cells assessed as cell growth at 10^-6 M after 48 hrs by SRB assay relative to control; type: functional; conditions: UACC-257, 48 h, read-out: Activity
CCRF-CEM [13] = experiment: Cytotoxicity against human CCRF-CEM cells assessed as cell growth at 10^-7 M after 48 hrs by SRB assay relative to control; type: functional; conditions: read-out: Activity
CCRF-CEM [14] = experiment: Cytotoxicity against human CCRF-CEM cells assessed as cell growth at 10^-4 M after 48 hrs by SRB assay relative to control; type: functional; conditions: read-out: Activity
[15] = Cytotoxicity against human UACC257 cells after 48 hrs by SRB assay; type: functional; conditions: UACC-257, 48 h
MOLT-4 = experiment: Cytotoxicity against human MOLT4 cells assessed as cell growth at 10^-4 M after 48 hrs by SRB assay relative to control; type: functional; conditions: MOLT-4, 48 h, read-out: Activity
DU-145 [16] = experiment: Cytotoxicity against human DU145 cells assessed as cell growth at 10^-4 M after 48 hrs by SRB assay relative to control; type: functional; conditions: DU-145, 48 h, read-out: Activity
DU-145 [17] = experiment: Cytotoxicity against human DU145 cells assessed as cell growth at 10^-8 M after 48 hrs by SRB assay relative to control; type: functional; conditions: DU-145, 48 h, read-out: Activity
NCI-H522 [18] = experiment: Cytotoxicity against human NCI-H522 cells after 48 hrs by SRB assay; type: functional; conditions: NCI-H522, 48 h; for CC50: read-out: LC50 (the source's name)
NCI-H522 [19] = experiment: Cytotoxicity against human NCI-H522 cells assessed as cell growth at 10^-7 M after 48 hrs by SRB assay relative to control; type: functional; conditions: NCI-H522, 48 h, read-out: Activity
SR [20] = experiment: Cytotoxicity against human SR cells assessed as cell growth at 10^-4 M after 48 hrs by SRB assay relative to control; type: functional; conditions: read-out: Activity
[21] = Cytotoxicity against human PC3 cells assessed as cell growth at 10^-7 M after 48 hrs by SRB assay relative to control; type: functional; conditions: PC-3, 48 h, read-out: Activity
BT-549 [22] = experiment: Cytotoxicity against human BT549 cells assessed as cell growth at 10^-8 M after 48 hrs by SRB assay relative to control; type: functional; conditions: BT-549, 48 h, read-out: Activity
SR [23] = experiment: Cytotoxicity against human SR cells after 48 hrs by SRB assay; type: functional; conditions: for CC50: read-out: LC50 (the source's name)
BT-549 [24] = experiment: Cytotoxicity against human BT549 cells after 48 hrs by SRB assay; type: functional; conditions: BT-549, 48 h; for CC50: read-out: LC50 (the source's name)
NCI-H522 [25] = experiment: Cytotoxicity against human NCI-H522 cells assessed as cell growth at 10^-6 M after 48 hrs by SRB assay relative to control; type: functional; conditions: NCI-H522, 48 h, read-out: Activity
BT-549 [26] = experiment: Cytotoxicity against human BT549 cells assessed as cell growth at 10^-6 M after 48 hrs by SRB assay relative to control; type: functional; conditions: BT-549, 48 h, read-out: Activity
NCI-H522 [27] = experiment: Cytotoxicity against human NCI-H522 cells assessed as cell growth at 10^-8 M after 48 hrs by SRB assay relative to control; type: functional; conditions: NCI-H522, 48 h, read-out: Activity
DU-145 [28] = experiment: Cytotoxicity against human DU145 cells assessed as cell growth at 10^-6 M after 48 hrs by SRB assay relative to control; type: functional; conditions: DU-145, 48 h, read-out: Activity
K562 = experiment: Cytotoxicity against human K562 cells assessed as cell growth at 10^-4 M after 48 hrs by SRB assay relative to control; type: functional; conditions: K562, 48 h, read-out: Activity
SR [29] = experiment: Cytotoxicity against human SR cells assessed as cell growth at 10^-8 M after 48 hrs by SRB assay relative to control; type: functional; conditions: read-out: Activity
NCI-H522 [30] = experiment: Cytotoxicity against human NCI-H522 cells assessed as cell growth at 10^-4 M after 48 hrs by SRB assay relative to control; type: functional; conditions: NCI-H522, 48 h, read-out: Activity
[31] = target: Proto-oncogene tyrosine-protein kinase Src (Homo sapiens, UniProt P12931); experiment: Inhibition of Src (unknown origin)
Sequence of Proto-oncogene tyrosine-protein kinase Src (P12931 2-536 limits assumed): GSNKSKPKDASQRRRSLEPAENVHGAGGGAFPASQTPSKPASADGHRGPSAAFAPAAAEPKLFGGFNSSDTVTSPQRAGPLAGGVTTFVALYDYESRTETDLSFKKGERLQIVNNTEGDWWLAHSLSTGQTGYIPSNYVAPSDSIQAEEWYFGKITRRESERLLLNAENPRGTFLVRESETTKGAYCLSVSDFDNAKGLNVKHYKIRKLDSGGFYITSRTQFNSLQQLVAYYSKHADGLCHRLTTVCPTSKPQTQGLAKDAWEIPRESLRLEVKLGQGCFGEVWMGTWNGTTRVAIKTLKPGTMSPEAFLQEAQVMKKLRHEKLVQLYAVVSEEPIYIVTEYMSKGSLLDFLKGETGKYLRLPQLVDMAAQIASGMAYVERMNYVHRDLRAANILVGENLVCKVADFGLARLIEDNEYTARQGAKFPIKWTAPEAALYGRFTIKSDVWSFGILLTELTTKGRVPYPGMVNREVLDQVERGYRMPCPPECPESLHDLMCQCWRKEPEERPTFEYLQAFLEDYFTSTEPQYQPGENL

Structure (SMILES) | growth at 100 µM (M14 [1]) [%] | growth at 100 µM (A549) [%] | growth at 100 µM (RPMI-8226 [2]) [%] | growth at 1 µM (RPMI-8226 [3]) [%] | growth at 0.01 µM (RPMI-8226 [4]) [%] | growth at 100 µM [7] [%] | GI50 (M14 [8]) [µM] | TGI (M14 [8]) [µM] | CC50 (M14 [8]) [µM] | growth at 0.1 µM (RPMI-8226 [9]) [%] | growth at 0.1 µM (M14 [10]) [%] | growth at 1 µM (M14 [11]) [%] | growth at 1 µM [12] [%] | growth at 100 µM (MOLT-4) [%] | growth at 100 µM (DU-145 [16]) [%] | growth at 0.01 µM (DU-145 [17]) [%] | GI50 (NCI-H522 [18]) [µM] | TGI (NCI-H522 [18]) [µM] | CC50 (NCI-H522 [18]) [µM] | growth at 0.1 µM (NCI-H522 [19]) [%] | also measured
COc1ccc(CCN2COc3c([C@@H](C)CCC=C(C)C)ccc(C)c3C2)cc1OC | -100 | -52 | -28 | 78 | 93 | -84 | 1.69 | 3.18 | 5.97 | 93 | 97 | 92 | 91 |  |  |  |  |  |  |  | growth at 0.01 µM (CCRF-CEM [5]): 96%; growth at 1 µM (CCRF-CEM [6]): 93%; growth at 0.1 µM (CCRF-CEM [13]): 98%; growth at 100 µM (CCRF-CEM [14]): -29%; GI50 [15]: 0.0283 µM; TGI [15]: 10.9 µM; CC50 ([15]; read-out: LC50 (the source's name)): 40.8 µM
CC(C)=CCC[C@H](C)c1ccc(C)c2c1OCN(CC1CCNCC1)C2 | -80 | -84 | -38 | 110 | 99 |  | 10.2 | 24.5 | 58.9 | 102 | 99 | 114 |  | -39 | -94 | 104 | 13.5 | 28.6 | 60.4 | 88 | growth at 100 µM (SR [20]): -42%; growth at 0.1 µM [21]: 100%; growth at 0.01 µM (BT-549 [22]): 94%; GI50 (SR [23]): 2.79 µM; TGI (SR [23]): 9.83 µM; CC50 (SR [23]): > 100 µM; GI50 (BT-549 [24]): 16.9 µM; TGI (BT-549 [24]): 41.6 µM; CC50 (BT-549 [24]): > 100 µM; growth at 1 µM (NCI-H522 [25]): 97%; growth at 1 µM (BT-549 [26]): 104%; growth at 0.01 µM (NCI-H522 [27]): 87%; growth at 1 µM (DU-145 [28]): 102%; growth at 100 µM (K562): -50%; growth at 0.01 µM (SR [29]): 95%; growth at 100 µM (NCI-H522 [30]): -84%
CC(C)=CCC[C@H](C)c1ccc(C)c(CNCC2CCNCC2)c1O |  |  |  |  |  | -8.3 |  |  |  |  |  |  | 80 | -22 | 41 | 100 | 8.22 | > 25 | > 25 | 96 | growth at 100 µM (SR [20]): -50%; growth at 0.1 µM [21]: 99%; growth at 0.01 µM (BT-549 [22]): 98%; GI50 (SR [23]): 3.71 µM; TGI (SR [23]): 9.67 µM; CC50 (SR [23]): > 25 µM; GI50 (BT-549 [24]): 9.72 µM; TGI (BT-549 [24]): > 25 µM; CC50 (BT-549 [24]): > 25 µM; growth at 1 µM (NCI-H522 [25]): 104%; growth at 1 µM (BT-549 [26]): 81%; growth at 0.01 µM (NCI-H522 [27]): 98%; growth at 1 µM (DU-145 [28]): 100%; growth at 100 µM (K562): -58%; growth at 0.01 µM (SR [29]): 83%; growth at 100 µM (NCI-H522 [30]): 9%
CC(C)=CCC[C@H](C)c1ccc(C)cc1O |  |  |  |  |  |  |  |  |  |  |  |  |  |  |  |  |  |  |  |  | IC50 [31]: 35.8 µM
